Structures are written as SMILES.

This is an account of results in patent US20090149485A1, “PYRIMIDINEDIONES AS TYROSINE KINASE INHIBITORS” (Jubilant Biosys Limited, priority 2006, published 2009).

One test concerns the target T1, GSK3-alpha (Homo sapiens, UniProt P49840).
T1 construct: purchased Upstate 14-492
As to the kind of experiment: GSK3-alpha Kinase-Glo Plus luminescent kinase assay. As to conditions: 10 μM compound, n=3, read-out: % Inhibition at 10 μM α. Type of test: biochemical. On the procedure:
(§1) GSK3 assays were performed using Kinase-Glo® Plus Luminescent Kinase Assay Kit (Promega V3772/3/4 P), in assay buffer (50 mM HEPES, 30 mM Magnesium acetate, 1 mM EDTA and 1 mM EGTA, pH 7.5) in white 96-well-Optiplates (Perkin Elmer). In a typical assay reaction mix (40 μl final volume) contained 10 μl of test compound (dissolved in DMSO), 10 μl of GSM peptide substrate (Upstate Cat#12-533) 20M-GSK3-beta; 25 μM-GSK3-alpha were added followed by 10 μl of enzyme 40 ng/well-GSK3-beta (Upstate Cat#14-306); 30 ng/well-GSK3-alpha (Upstate Cat#14-492) and 1 μM ATP. After incubation at room temperature for 30 minutes, 40 μl of Kinase-Glo reagent was added to stop the reaction, followed by another 5 minutes incubation at room temperature. Luminescence was measured using Wallac 1450 MicroBeta® TriLux (PerkinElmer) Liquid Scintillation and Luminescence Counter. The activity is expressed as a difference of the consumed ATP and total ATP.

In the next test the target is T2, GSK3-beta (Homo sapiens, UniProt P49841).
T2 construct: purchased Upstate 14-306
As to the kind of experiment: GSK3-beta Kinase-Glo Plus luminescent kinase assay. Type of test: biochemical. As to conditions: 10 μM compound; for inhibition at 10 µM: n=4, read-out: % Inhibition at 10 μM β. On the procedure: To analyze the activity of the compounds, the said compounds were subjected to biochemical assays. The biochemical assays as performed by the undermentioned methods are used to evaluate the potency of the compounds. This potency data is the indication of the bioactivity of the organic compounds which are described as inhibitors of GSK3beta.
as §1

T2 sequence (P49841 whole entry): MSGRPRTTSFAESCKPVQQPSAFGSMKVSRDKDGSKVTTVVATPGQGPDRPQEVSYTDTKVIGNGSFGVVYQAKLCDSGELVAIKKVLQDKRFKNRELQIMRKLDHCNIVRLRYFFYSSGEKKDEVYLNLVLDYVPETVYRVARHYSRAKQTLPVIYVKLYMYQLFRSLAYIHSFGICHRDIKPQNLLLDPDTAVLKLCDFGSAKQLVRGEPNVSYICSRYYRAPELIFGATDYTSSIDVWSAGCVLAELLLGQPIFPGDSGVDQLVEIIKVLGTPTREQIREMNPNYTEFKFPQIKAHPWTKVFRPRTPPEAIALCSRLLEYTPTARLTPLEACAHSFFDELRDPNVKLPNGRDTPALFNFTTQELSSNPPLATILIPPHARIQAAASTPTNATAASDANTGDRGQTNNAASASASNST
T1 sequence (P49840 whole entry): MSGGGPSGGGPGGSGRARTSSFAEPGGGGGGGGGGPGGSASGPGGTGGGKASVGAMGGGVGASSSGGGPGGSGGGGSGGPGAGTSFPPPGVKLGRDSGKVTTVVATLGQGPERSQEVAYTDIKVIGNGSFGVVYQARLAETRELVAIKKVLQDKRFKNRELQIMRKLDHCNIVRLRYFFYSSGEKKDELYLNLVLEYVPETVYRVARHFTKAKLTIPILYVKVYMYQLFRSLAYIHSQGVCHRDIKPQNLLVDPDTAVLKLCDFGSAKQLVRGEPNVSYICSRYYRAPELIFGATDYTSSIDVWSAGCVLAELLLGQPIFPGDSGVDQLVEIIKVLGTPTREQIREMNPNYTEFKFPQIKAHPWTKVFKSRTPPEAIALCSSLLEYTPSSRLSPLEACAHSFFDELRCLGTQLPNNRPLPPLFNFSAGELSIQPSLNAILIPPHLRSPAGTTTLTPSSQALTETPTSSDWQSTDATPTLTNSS

With `CCOC(=O)Cn1cc(-c2ccco2)c(=O)[nH]c1=O` [Compound 1, (2,4-Dioxo-5-furan-2-yl-3,4-dihydro-2H-pyrimidin-1-yl)-acetic Acid Ethyl Ester], the inhibition at 10 µM at GSK3-alpha was found to be 9%; on GSK3-beta it was 13%.
Consider `CCOC(=O)Cn1cc(-c2cccs2)c(=O)[nH]c1=O` [Compound 2, (2,4-Dioxo-5-thiophen-2-yl-3,4-dihydro-2H-pyrimidin-1-yl)-acetic acid Ethyl Ester], for which the inhibition at 10 µM at GSK3-alpha was 68%; at GSK3-beta, 77%.
With `O=c1[nH]c(=O)n(Cc2ccc(F)cc2)cc1-c1cccs1` [Compound 3, 1-(4-Fluoro-benzyl)-5-thiophen-2-yl-1H-pyrimidine-2,4-dione], the inhibition at 10 µM is 11% at GSK3-alpha and 66% on GSK3-beta. Moreover, at GSK3-beta (n=4, 10 µM), the “% Inhibition at 10 μM β” value is recorded as 68%.
`O=c1[nH]c(=O)n(Cc2ccc(F)cc2)cc1-c1ccco1` [Compound 4, 1-(4-Fluoro-benzyl)-5-furan-2-yl-1H-pyrimidine-2,4-dione]: the inhibition at 10 µM on GSK3-alpha came to 72%; on GSK3-beta, 56%.
For `N#Cc1ccc(Cn2cc(-c3ccco3)c(=O)[nH]c2=O)cc1` [Compound 5, 4-(2,4-Dioxo-5-furan-2-yl-3,4-dihydro-2H-pyrimidin-1-ylmethyl)-benzonitrile] the same measures were 17% and 46%.
For `O=c1[nH]c(=O)n(Cc2ccccc2)cc1-c1cccs1` [Compound 6, 1-Benzyl-5-thiophen-2-yl-1H-pyrimidine-2,4-dione] the same measures were 10% and 45%.
In the case of `N#Cc1cccc(Cn2cc(-c3cccs3)c(=O)[nH]c2=O)c1` [Compound 7, 3-(2,4-dioxo-5-thiophen-2-yl-3,4-dihydro-2H-pyrimidin-1-ylmethyl)-benzonitrile], the inhibition at 10 µM at GSK3-alpha amounted to 16%; at GSK3-beta, 45%.
As for `N#Cc1cccc(Cn2c(=O)[nH]cc(-c3cccs3)c2=O)c1` [Compound 8, 3-(2,6-Dioxo-5-thiophen-2-yl-3,6-dihydro-2H-pyrimidin-1-ylmethyl)-benzonitrile], the results for the inhibition at 10 µM at GSK3-alpha and on GSK3-beta were 54% and 78%, respectively.
For `N#Cc1cccc(Cn2c(=O)[nH]cc(-c3ccco3)c2=O)c1` [Compound 9, 3-(5-furan-2-yl-2,6-dioxo-3,6-dihydro-2H-pyrimidin-1-ylmethyl)-benzonitrile], in that order: 22% and 64%.
For `O=c1[nH]cc(-c2cccs2)c(=O)n1Cc1ccc(F)cc1` [Compound 10, 3-(4-fluoro-benzyl)-5-thiophen-2-yl-1H-pyrimidine-2,4-dione] the same measures were 6% and 13%.
For `O=c1[nH]cc(-c2ccco2)c(=O)n1Cc1ccc(F)cc1` [Compound 11, 3-(4-fluoro-benzyl)-5-furan-2-yl-1H-pyrimidine-2,4-dione], in that order: 16% and 46%.
Consider `O=c1[nH]cc(-c2ccco2)c(=O)n1Cc1ccc([N+](=O)[O-])cc1` [Compound 12, 3-(4-nitro-benzyl)-5-furan-2-yl-1H-pyrimidine-2,4-dione], for which the inhibition at 10 µM was 55% on GSK3-alpha and 75% at GSK3-beta.
For `CCOC(=O)Cn1c(=O)[nH]cc(-c2ccco2)c1=O` [Compound 13, (2,6-dioxo-5-furan-2-yl-3,6-dihydro-2H-pyrimidin-1-yl)-acetic Acid Ethyl Ester] the same measures were 13% and 25%.
For `O=c1[nH]cc(-c2ccco2)c(=O)n1Cc1ccccc1` [Compound 14, 3-benzyl-5-furan-2-yl-1H-pyrimidine-2,4-dione], in that order: 42% and 63%.
Regarding `N#Cc1ccc(Cn2c(=O)[nH]cc(-c3ccco3)c2=O)cc1` [Compound 15, 4-(2,6-dioxo-5-furan-2-yl-3,6-dihydro-2H-pyrimidin-1-ylmethyl)-benzonitrile], the inhibition at 10 µM on GSK3-alpha worked out at 14%; on GSK3-beta, 21%.
For `O=c1[nH]cc(-c2cccs2)c(=O)n1Cc1ccc([N+](=O)[O-])cc1` [Compound 17, 3-(4-nitro-benzyl)-5-thiophen-2-yl-1H-pyrimidine-2,4-dione] the same measures were 8% and 58%.
As for `N#Cc1cccc(Cn2cc(-c3ccco3)c(=O)[nH]c2=O)c1` [Compound 18, 3-(5-furan-2-yl-2,4-dioxo-3,4-dihydro-2H-pyrimidin-1-ylmethyl)-benzonitrile], the inhibition at 10 µM on GSK3-alpha stood at 10%; at GSK3-beta it was 31%.
`N#Cc1ccc(Cn2cc(-c3cccs3)c(=O)[nH]c2=O)cc1` [Compound 19, 4-(2,4-dioxo-5-thiophen-2-yl-3,4-dihydro-2H-pyrimidin-1-ylmethyl)-benzonitrile]: the inhibition at 10 µM turned out to be 15% at GSK3-alpha and 23% at GSK3-beta.
For `O=c1[nH]cc(-c2ccco2)c(=O)n1Cc1cc(F)cc(F)c1` [Compound 20, 3-(3,5-difluoro-benzyl)-5-furan-2-yl-1H-pyrimidine-2,4-dione], in that order: 11% and 53%.
